Results from patent US20260345654A1, “2,8-DIHYDROXYQUINOLINE GLUCURONIDE DERIVATIVES WITH ENHANCED PROPERTIES FOR USE AS ANTICANCER, ANTIVIRAL, ANTIMICROBIAL, AND OTHER THERAPEUTIC APPLICATIONS” (priority 2023, published 2026).
Entries after “also recorded” stand apart in the source; their conditions may differ. Read-outs that look alike come from different tables or passages of the source.

Assays:
[1] = system: A549 cells; experiment: In vitro anti-proliferation (CellTiter-Glo, 72 hr), A549; type: cell-based, human
Experimental: (§1) Commercially available 8HQ and freshly synthesized G2-8HQ were prepared for in vitro anti-proliferative studies against the following cell lines with and without the presence of 10 μM Cu(+2): (1) A549: […]; (2) BT-549: epithelial cells from ductal tumor; (3) DU-145: human prostate cancer; (4) PANC-1: pancreatic cancer; (5) SU.86.86: a new adoptive pancreatic cell for immunotherapy studies; (6) RL: non-Hodgkin's lymphoma; (7) LnCAP, Prostate cancer cell line; (8) A431, a squamous cell carcinoma line; and (9) UACC-62 a malignant melanoma cell line.
(§2) With regard to the study protocol used, the objective was to conduct a study of the cytotoxicity of W1469 against several cancer cell lines. In the study protocol, preparations for the A549 (Lung) cell line screen are given as an example. The following materials were used: (1) FBS (2) RPMI-1640 medium supplemented with 10% FBS:’ and (3) A549 Cells. The four samples tested are referred to as Items 1-4 below and were placed at 4 °C upon arrival. These four samples were as follows: • Item 1: Tube A (W1469) (500 uM when FBS added) • Item 2: Tube B (W1469g) (1000 uM when FBS added) • Item 3: Tube C (W1469) • Item 4: Tube D (W1469g)
Items 1 and 2 are sterile ready for the addition of 1 ml of sterile FBS. Final concentrations after addition of 1 ml: 500 μM for Tube A and 1000 μM for Tube B. Items 3 and 4 are described further below. In the protocol, media containing 10% FBS and 20 μM CuCl2 are used in Tubes C and D only. A and B are serially diluted in media with 10% FBS and no added copper.
The protocol method proceeds as follows:
Seed 2, 96-well plates of A549 cells with 5,000 cells per well in a total volume of 50 μL per well. Leave overnight. See plate layout below for which wells to seed with 100 μL of media for media control. The following day, cells are exposed to compounds as described below.
For Items 1 & 2, to make the 500 μM and 1000 μM Stocks of samples 1 and 2 (W1469 and W1469g): Add 1 ml of sterile FBS to each Tube A and Tube B, swirl to mix.
To make appropriate 2× final dilutions of sample 1, Tube A (W1469), the following amounts are used: • 500 μM: 10 mL as supplied • 100 μM: 2 mL 500 μM Sample+8 mL media • 30 μM: 3 mL 100 μM Sample+7 mL media • 10 μM: 3 mL 30 μM Sample+6 mL media • 3 μM: 3 mL 10 μM Sample+7 mL media • 1 μM: 3 mL 3 μM Sample+6 mL media • 0.3 μM: 3 mL 1 μM Sample+7 mL media • 0.1 μM: 3 mL 0.3 μM Sample+6 mL media
To make appropriate 2× final dilutions of sample 2, Tube B (W1469g), the following amounts are used: • 1000 μM: 10 mL as supplied • 300 μM: 3 mL 1000 μM Sample+7 mL media • 100 μM: 3 mL 300 μM Sample+6 mL media • 30 μM: 3 mL 100 μM Sample+7 mL media • 10 μM: 3 mL 30 μM Sample+6 mL media • 3 μM: 3 mL 10 μM Sample+7 mL media • 1 μM: 3 mL 3 μM Sample+6 mL media • 0.3 μM: 3 mL 1 μM Sample+7 mL media
For Items 3 & 4, the following protocol was used to make 1000 uM Stocks of samples 3 and 4 (W1469 and W1469g): • 1: Dissolve 3.37 mg W1469 and excipient (Tube C) in 1 ml RPMI medium without added FBS and copper and swirl briefly until completely dissolved. Add 9 ml of RPMI media containing 10% FBS and 20 uM copper. Swirl to mix. Sterile filter the 10 ml with provided syringes and filters. This is now the 1000 μM stock solution W1469 ready for screening • 2: Dissolve 3.2 mg W1469g and excipient (Tube D) in 1 ml RPMI medium without added FBS and copper and swirl briefly until completely dissolved. […] This is now the 1000 μM stock solution W1469g ready for screening. […]

[2] = system: DU-145 cells; experiment: In vitro anti-proliferation (CellTiter-Glo, 72 hr), DU-145; type: cell-based, human
Experimental: as §1, §2
(§3) Add 50 μL of above 2× stocks to appropriate wells to expose appropriate cells to the final dilutions of samples. Add 50 μL media to media and cell control wells and 50 μL media mix to vehicle control wells. Cells are exposed for 72 hr. Following a 72 hr exposure to Sample, perform a CTG assay on all remaining plates.
(§4) At the end of the 72 hr exposure period, remove plates for CellTiter-Glo assay from 37 °C, 5% CO2 incubator and place on the bench at room temperature for 30 mins. Add 100 μL CellTiter-Glo reagent, mix for 2 mins, followed by a further 10 min incubation at room temperature. Record luminescence. Tables showing the resulting plate layouts are included below/

[3] = system: PANC-1 cells; experiment: In vitro anti-proliferation (CellTiter-Glo, 72 hr), PANC-1; type: cell-based
Experimental: as §1, §2, §3, §4

[4] = system: RL cells; experiment: In vitro anti-proliferation (CellTiter-Glo, 72 hr), RL; type: cell-based
Experimental: as §1, §2, §3, §4

[5] = system: LnCAP cells; experiment: In vitro anti-proliferation (CellTiter-Glo, 72 hr), LnCAP; type: cell-based
Experimental: as §1, §2, §3, §4
The other cancer cell lines tested gave similar results. […] Three additional cell lines were also studied and described more completely in Example 9 provided herein. These cell lines included cytotoxicity testing of WT1469 (G2-8HQ) against LnCAP a prostate cancer, A431 a squamous carcinoma cell line and UACC-62 a malignant melanoma cell line. All were complexed in situ with copper immediately prior to testing. The results from these additional cell lines and incorporated in Table 2 and Example 9.

[6] = system: cancer cell lines; experiment: Anti-proliferative activity against cancer cell lines (overall statements); type: cell-based
Experimental: as §1, §2, §3, §4

[7] = Solubility
[8] = 1 and 0.5 μM, presence of Cu^+2 ions, wide standard deviation
[9] = +Cu (10 μM), 72 hr, G2-8HQ values based on MW of apo form (337), read-out: IC50

## O=C(O)[C@H]1O[C@@H](Oc2ccc3cccc(O)c3n2)[C@H](O)[C@@H](O)[C@@H]1O [G2-8HQ, 8-Hydroxy-2-quinolinyl beta-D-glucopyranosiduronic acid]
[1]; [8]
  cytotoxicity: in some percentage of the screens all the cancer cells were killed at these concentrations
[1]; A549, 10 or 20 μM Cu^+2 vs −Cu
  improvement of cytotoxicity in presence of copper: 8-18 fold
[1]; Homo sapiens, A549, 72 h, −Cu, 72 hr
  IC50: > 500 µM
[2]; [8]
  cytotoxicity: in some percentage of the screens all the cancer cells were killed at these concentrations
[2]; [9]
  IC50: 8.7 µM
[2]; Homo sapiens, DU-145, 72 h, +Cu (10 μM), 72 hr, G2-8HQ values based on MW of apo form (337), read-out: IC50
  IC50: 7.3 µM
[2]; Homo sapiens, DU-145, 72 h, −Cu, 72 hr, read-out: IC50
  IC50: > 500 µM
[2]; Homo sapiens, DU-145, complexed with Cu, multiplied by 337/776=0.43, column 3 duplicate of column 2, read-out: IC50 (adjusted to MW of copper complex)
  IC50: 3.1 µM
[2]; complexed with Cu, multiplied by 337/776=0.43, column 3 duplicate of column 2, listed as W1469, read-out: IC50 (adjusted to MW of copper complex)
  IC50: 3.7 µM
[3]; [8]
  cytotoxicity: at least some of the screens reflected that all the cancer cells were killed at these concentrations; also recorded: in some % of the screens all the cancer cells were killed at these concentrations
[3]; Homo sapiens, PANC-1, 72 h, −Cu, 72 hr
  IC50: > 500 µM
[4]; [8]
  cytotoxicity: in a percentage of cases, all of the cancer cells were killed at concentrations between at 1 and 0.5 μM; also recorded: in some % of the screens all the cancer cells were killed at these concentrations
[4]; [9]
  IC50: 0.47 µM
[4]; Homo sapiens, RL, 72 h, +Cu (10 μM), 72 hr, G2-8HQ values based on MW of apo form (337), read-out: IC50
  IC50: 0.468 µM
[4]; Homo sapiens, RL, 72 h, −Cu, 72 hr, read-out: IC50
  IC50: > 500 µM
[4]; Homo sapiens, RL, complexed with Cu, multiplied by 337/776=0.43, read-out: IC50 (adjusted to MW of copper complex)
  IC50: 0.2 µM
[5]; +Cu, complexed in situ with copper immediately prior to testing, apo MW (337), read-out: IC50
  IC50: 154 µM
[5]; Homo sapiens, LNCaP, +Cu, complexed in situ with copper immediately prior to testing, apo MW (337), read-out: IC50
  IC50: 109 µM
[5]; Homo sapiens, LNCaP, complexed with Cu in situ, * differences with or without excipient, suboptimal complexing, read-out: IC50 (adjusted to MW of copper complex)
  IC50: 46.9 µM
[5]; complexed with Cu in situ, * differences with or without excipient, suboptimal complexing, listed as W1469, read-out: IC50 (adjusted to MW of copper complex)
  IC50: 66.2 µM
[6]; absence of copper
  cytotoxicity: absence of cytotoxicity (no measurable IC50 in standard drug concentration ranges)
[6]; all cell lines tested
  anticancer activity: powerful anticancer activity against all cell lines tested
[6]; comparison Table 5
  Active w/o Cu (cancer): No
[6]; without copper, six of the nine carcinoma cell lines
  IC50: > 500 µM
[7]; comparison Table 5
  Solubility of Cu Complex/aqueous: excellent
[7]; water / aqueous
  solubility: highly aqueous soluble
[7]; water or PBS (at neutral pH)
  solubility: highly soluble
